In ChEMBL document CHEMBL1127902, “Synthesis of -estradiol-3-benzoate-17-(succinyl-12A-tetracycline): A potential bone-seeking estrogen” (Bioorg Med Chem Lett, 1994) one finds Binding data, which are given here for four compounds.

The nature of this experiment: Percent of compound bound to bone mineral hydroxylapatite was determined […]. The settings on record: Bone element.

In the case of `C[C@]12CC[C@@H]3c4ccc(OC(=O)c5ccccc5)cc4CC[C@H]3[C@@H]1CC[C@@H]2O`, the Binding is under 1%.
In the case of `CN(C)[C@@H]1C(O)=C(C(N)=O)C(=O)[C@@]2(O)C(O)=C3C(=O)c4c(O)cccc4[C@@](C)(O)[C@H]3C[C@@H]12`, the Binding was over 99%.
In the case of `C[C@]12CC[C@@H]3c4ccc(O)cc4CC[C@H]3[C@@H]1CC[C@@H]2O` it was under 1%; in that of `CN(C)[C@@H]1C(=O)C(C(N)=O)=C(O)[C@@]2(OC(=O)CCC(=O)O[C@H]3CC[C@H]4[C@@H]5CCc6cc(OC(=O)c7ccccc7)ccc6[C@H]5CC[C@]34C)C(O)=C3C(=O)c4c(O)cccc4[C@@](C)(O)C3CC12` (some centres undefined), over 99%.
